Test results: ChEMBL document CHEMBL6078645, “Expanding the Solvent/Protein Region Occupation of the Non-Nucleoside Reverse Transcriptase Inhibitor Binding Pocket for Improved Broad-Spectrum Anti-HIV-1 Efficacy: from Rigid Phenyl-Diarylpyrimidines to Flexible Hydrophilic Piperidine-Diarylpyrimidines” (J Med Chem, 2024)

How the values were obtained:
[1] = tested on: Human immunodeficiency virus 1; test: Antiviral activity against HIV-1 harboring Y188L mutant infected in human MT4 cells assessed as protection against virus-induced cytopathic effect incubated for 5 days by MTT assay; assay type: functional, organism-based; details: Human immunodeficiency virus 1, MT4, 120 h
[2] = Cytotoxicity against human MT4 cells assessed as reduction in cell viability incubated for 5 days by MTT assay; assay type: toxicity, cell-based; details: MT4 cells, time 5 day
[3] = Selectivity index, ratio of CC50 for cytotoxicity against human MT4 cells assessed as reduction in cell viability to EC50 for antiviral activity against wild type HIV-1 IIIB infected in human MT4 cells assessed as protection against virus-induced cytopathic effect; assay type: toxicity, cell-based; details: MT4 cells, read-out: Ratio CC50/EC50
[4] = tested on: Human immunodeficiency virus 1; test: Antiviral activity against wild type HIV-1 IIIB infected in human MT4 cells assessed as protection against virus-induced cytopathic effect incubated for 5 days by MTT assay; assay type: functional, organism-based; details: Human immunodeficiency virus 1, IIIB, MT4, 120 h
[5] = tested on: Human immunodeficiency virus 1; test: Antiviral activity against HIV-1 harboring RES056 mutant infected in human MT4 cells assessed as protection against virus-induced cytopathic effect incubated for 5 days by MTT assay; assay type: functional, organism-based; details: Human immunodeficiency virus 1, MT4, 120 h
[6] = tested on: Human immunodeficiency virus 1; test: Antiviral activity against HIV-1 harboring F227L/V106A double mutant infected in human MT4 cells assessed as protection against virus-induced cytopathic effect incubated for 5 days by MTT assay; assay type: functional, organism-based; details: Human immunodeficiency virus 1, MT4, 120 h
[7] = molecular target: T1, Human immunodeficiency virus type 1 reverse transcriptase (Human immunodeficiency virus 1, UniProt Q72547); test: Inhibition of HIV-1 reverse transcriptase
[8] = tested on: Human immunodeficiency virus 1; test: Antiviral activity against HIV-1 harboring L100I mutant infected in human MT4 cells assessed as protection against virus-induced cytopathic effect incubated for 5 days by MTT assay; assay type: functional, organism-based; details: Human immunodeficiency virus 1, MT4, 120 h
[9] = tested on: Human immunodeficiency virus 1; test: Antiviral activity against HIV-1 harboring E138K mutant infected in human MT4 cells assessed as protection against virus-induced cytopathic effect incubated for 5 days by MTT assay; assay type: functional, organism-based; details: Human immunodeficiency virus 1, MT4, 120 h
[10] = tested on: Human immunodeficiency virus 1; test: Antiviral activity against HIV-1 harboring K103N mutant infected in human MT4 cells assessed as protection against virus-induced cytopathic effect incubated for 5 days by MTT assay; assay type: functional, organism-based; details: Human immunodeficiency virus 1, MT4, 120 h
[11] = molecular target: T1, Human immunodeficiency virus type 1 reverse transcriptase; test: Inhibition of wildtype recombinant HIV-1 Reverse transcriptase incubated for 40 mins by spectrofluorometric analysis
[12] = tested on: Human immunodeficiency virus 1; test: Antiviral activity against HIV-1 harboring Y181C mutant infected in human MT4 cells assessed as protection against virus-induced cytopathic effect incubated for 5 days by MTT assay; assay type: functional, organism-based; details: Human immunodeficiency virus 1, MT4, 120 h

| Compound | EC50 [1] | CC50 at 120 h [2] | selectivity ratio [3] | EC50 [4] | EC50 [5] | EC50 [6] | EC50 [7] | EC50 [8] | EC50 [9] | EC50 [10] | IC50 [11] | EC50 [12] |
| --- | --- | --- | --- | --- | --- | --- | --- | --- | --- | --- | --- | --- |
| Cc1cc(-c2ccc(C#N)cc2)cc(C)c1Oc1nc(NC2CCN(Cc3ccc(CO)cc3)CC2)ncc1CO | 56 nM | 18400 nM | 1980 | 9 nM | 307 nM | 51 nM | – | – | – | – | – | – |
| Cc1cc(-c2ccc(C#N)cc2)cc(C)c1Oc1nc(NC2CCN(Cc3ccc(F)cc3)CC2)ncc1CO | 283 nM | 5680 nM | 629 | – | 935 nM | 558 nM | 9 nM | – | – | – | – | – |
| COCCNS(=O)(=O)c1ccc(CN2CCC(Nc3ncc(CO)c(Oc4c(C)cc(-c5ccc(C#N)cc5)cc4C)n3)CC2)cc1 | 47 nM | 6710 nM | 1030 | – | 45 nM | 34 nM | 6 nM | 6 nM | 40 nM | 7 nM | 575 nM | 34 nM |
| Cc1cc(-c2ccc(C#N)cc2)cc(C)c1Oc1nc(NC2CCN(Cc3ccc(C(N)=O)cc3)CC2)ncc1CO | 156 nM | 21800 nM | 3200 | – | 304 nM | 260 nM | 7 nM | – | – | – | 265 nM | – |
| COCCNC(=O)c1ccc(CN2CCC(Nc3ncc(CO)c(Oc4c(C)cc(-c5ccc(C#N)cc5)cc4C)n3)CC2)cc1 | 49 nM | 17600 nM | 1860 | – | 44 nM | 42 nM | 9 nM | 6 nM | 19 nM | 7 nM | 509 nM | 23 nM |
| Cc1cc(/C=C/C#N)cc(C)c1Nc1ccnc(Nc2ccc(C#N)cc2)n1 [RILPIVIRINE] | – | – | – | – | – | – | 1 nM | 2 nM | – | – | – | – |
| Cc1cc(-c2ccc(C#N)cc2)cc(C)c1Oc1nc(NC2CCN(Cc3ccc(C(F)(F)F)cc3)CC2)ncc1CO | 701 nM | 5050 nM | 127 | – | 2600 nM | 1590 nM | 40 nM | – | – | – | – | – |
| O=C1Nc2ccc(Cl)cc2[C@@](C#CC2CC2)(C(F)(F)F)O1 [EFAVIRENZ] | – | > 6350 nM | – | – | 579 nM | – | – | 55 nM | 10 nM | – | – | 8 nM |
| Cc1cc(-c2ccc(C#N)cc2)cc(C)c1Oc1nc(NC2CCN(Cc3ccc(C#N)cc3)CC2)ncc1CO | 59 nM | 4830 nM | 684 | – | 294 nM | 71 nM | 7 nM | 9 nM | 21 nM | 6 nM | 297 nM | 22 nM |
| Cc1ccc(CN2CCC(Nc3ncc(CO)c(Oc4c(C)cc(-c5ccc(C#N)cc5)cc4C)n3)CC2)cc1 | 237 nM | 3660 nM | 285 | – | 1120 nM | 810 nM | 13 nM | – | – | – | 626 nM | – |
| Cc1cc(-c2ccc(C#N)cc2)cc(C)c1Oc1nc(NC2CCN(Cc3ccc(C(=O)NCCO)cc3)CC2)ncc1CO | – | 16300 nM | 1140 | – | – | – | 14 nM | – | – | – | – | – |
| Cc1cc(-c2ccncc2)cc(C)c1Oc1nc(NC2CCN(Cc3ccc(C(=O)NCCCO)cc3)CC2)ncc1CO | – | – | – | – | – | – | – | – | – | – | 355 nM | – |
| Cc1cc(-c2ccc(C#N)cc2)cc(C)c1Oc1nc(NC2CCN(Cc3ccc(S(C)(=O)=O)cc3)CC2)ncc1CO | 58 nM | 9170 nM | 1190 | – | 163 nM | 52 nM | 8 nM | 8 nM | 36 nM | 18 nM | 270 nM | 19 nM |
| Cc1cc(-c2ccc(C#N)cc2)cc(C)c1Oc1nc(NC2CCN(Cc3cccc(C(N)=O)c3)CC2)ncc1CO | 255 nM | 18400 nM | 2230 | – | 1210 nM | 271 nM | 8 nM | – | – | – | 201 nM | – |
| Cc1cc(-c2ccc(C#N)cc2)cc(C)c1Oc1nc(NC2CCN(Cc3ccc(S(=O)(=O)NCCO)cc3)CC2)ncc1CO | 228 nM | 15500 nM | 1630 | – | 327 nM | 69 nM | 10 nM | – | – | – | 413 nM | – |
